In patent US5686426A, “Dicarboxymethylated glycolipid derivatives as cell adhesion inhibitors” (Bristol-Myers Squibb Company, priority 1994, dated 1997):

System: reverse passive Arthus reaction in rats
Assay: Reverse Passive Arthus Reaction in Rats (RPA)
Assay type: in vivo, Male Sprague Dawley rats
Parameters: key: NS: no significant inhibition at 3 mg
Conditions: rat, single IV dose 3 mg, 4 hours; for RPA VP % Inhib. (vascular permeability): 125I-BSA plasma extravasation into skin; for RPA MPO % Inhib. (myeloperoxidase, neutrophil accumulation): skin MPO activity
Source text: The reverse passive Arthus reaction in rats is a modification of the method by Mulligan et al., as described in J. Clin. Invest., (1991) 88: 1396-1406. This is an experimental model in which the interaction of antigen-antibody complexes and complement leads to a severe vasculitis that is associated with edema, induration, erythema and hemorrhage. The interaction between the antigen-antibody complexes and complement leads to a localized influx of neutrophils. These neutrophils release a variety of mediators that are associated with tissue damage and vascular permeability. The localized inflammatory reaction is measured using different techniques i.e., vascular permeability and neutrophil influx which is evaluated both biochemically and microscopically.
Male Sprague Dawley specific pathogen-free rats with jugular vein cannulae (280-320 g, Hill Top Labs, Pa.) are used in these studies. Animals are acclimated for at least 1 day and individually housed in stainless steel cages. The dorsal region of the rats is closely clipped 2 days prior to the experiments and divided into 4 sites on each side of the midline. Prior to all injections the rats are sedated with 0.4 ml per 300 gm rat of ketamine/rompun [1000 mg (10 ml) of ketamine HCL is mixed with 40 mg (2.0 ml) Rompun] administered IP and or inhalation anesthesia with metafane (methoxyflurane).
Bovin Serum Albumin (BSA) and rabbit polyclonal IgG rich in anti-BSA are purchased from Sigma Chemical Co. (St. Louis, Mo.). Radiolabelled ^125 I-BSA (spAct 1-5 μCi/μg) is purchased from Dupont NEN (Boston, Mass.).
Each rat is administered intradermal (ID) injection of (0.4 mg, 0.6 mg and 0.8 mg) anti-BSA in a volume of 100 μl per injection in normal saline. The ID injections are randomized near the mid dorsal region on both sides of the back bone. Immediately after the ID injections of the anti-BSA, the rats are administered intravenous (IV) injections of BSA (10 mg in 1.0 ml) in normal saline containing ^125 I labeled BSA (1 μCi/ml BSA or 5.0 μCi/kg body wt) for quantification of dermal vascular injury. Anti-inflammatory agents such as inhibitors of adhesion molecules of the present invention are administered IV at a single dose of 3 mg immediately after BSA. Four (4) hours after the IV injection of BSA, the rats are anesthetized with metafane and 2 to 3 ml of blood is withdrawn via the cannula into an anticoagulant containing (EDTA or Heparin) tube and plasma separated and saved for neutrophil and albumin quantitation. The rats are killed and the skin surrounding the injection site (15 mm diameter) is punched out and weighed. The skin samples and a fixed volume of plasma (0.1 to 1.0 ml) is analyzed in a gamma-counter for ^125 I content. Skin samples from the contralateral side are processed and analyzed for myeloperoxidase activity (MPO) as a measure of neutrophil accumulation. As needed, samples are also processed for histological evaluation of the reacted sites.
Vascular Permeability (VP)
The calculation of the plasma protein exudation into skin is made by determining the radioactivity in the tissue and relating this to the level of radioactive albumin in the blood at the time of sacrifice. […] [formula]
Percent inhibition of the test compound at 3 mg was determined as follows: [formula] Myeloperoxidase (MPO)
MPO is located in the azurophil granules of polymorphonuclear leukocytes (PMN). Because of its abundance in these cells (5% dry weight), this enzyme is used as a marker for tissue neutrophil content. For tissue MPO content, the method of Bradley, et al., was used as described in J. Invest. Dermatol. (1982) 78: 206-209. Biopsies from each treatment group were placed in plastic tubes (15×100 mm) containing 10 ml of 0.5% hexadecyltrimethylammonium bromide (HTAB)in 0.05M potassium phosphate buffer pH 6.0. The tissue was then homogenized with a Brinkmann Polytron homogenizer (10s). […]

SMILES	RPA VP % Inhib. (vascular permeability)	RPA MPO % Inhib. (myeloperoxidase, neutrophil accumulation)
CCCCCCCCCCCCC/C=C/[C@@H](OC(=O)c1ccccc1)[C@H](CO[C@H]1O[C@H](COCC(=O)O)[C@H](OCC(=O)O)[C@H](OC(=O)c2ccccc2)[C@H]1OC(=O)c1ccccc1)NC(=O)CCCCCCCCCCCCCCC [Example 2, (2S,3R,4E)-3-Benzoyloxy-2-hexadecanoylamino-1-[2,3-di-O-benzoyl-4,6-di-O-carboxymethyl-α-D-galactopyranosyloxy]-4-octadecene]	> 73%	> 99%
CCCCCC/C=C/[C@@H](OC(=O)c1ccccc1)[C@H](CO[C@H]1O[C@H](COCC(=O)O)[C@H](OCC(=O)O)[C@H](OC(=O)c2ccccc2)[C@H]1OC(=O)c1ccccc1)NC(=O)CCCCCCCCC(=O)OC [Example 8, (2S,3R,4E)-3-Benzoyloxy-2-(9-methoxycarbonyl-nonanoylamino)-1-(2,3-di-O-benzoyl-4,6-di-O-carboxymethyl-α-D-galactopyranosyloxy)-4-undecene]	9%	22%
CCCCCCCCCCCCC/C=C/[C@@H](OC(=O)c1ccccc1)[C@H](CO[C@H]1O[C@H](COCC(=O)O)[C@H](OCC(=O)O)[C@H](O)[C@H]1OC(=O)c1ccccc1)NC(=O)CCCCCCCCCCCCCCC [Example 14, (2S,3R,4E)-3-Benzoyloxy-2-hexadecanoylamino-1-[2-O-benzoyl-4,6-di-O-carboxymethyl-α-D-galactopyranosyloxy]-4-octadecene]	32%	13%
CCCCCCCCCCCCC/C=C/[C@@H](OC(=O)c1ccccc1)[C@H](CO[C@@H]1O[C@H](COCC(=O)O)[C@H](OCC(=O)O)[C@H](OC(=O)c2ccccc2)[C@H]1OC(=O)c1ccccc1)NC(=O)CCCCCCCCCCCCCCC [Example 16, (2S,3R,4E)-2-Hexadecanoylamino-3-benzoyloxy-1-(4,6-di-O-carboxymethyl-2,3-di-O-benzoyl-β-D-galactopyranoside)-4-octadecene]	NS	NS
CCCCCCCCCCCCC/C=C/[C@@H](OC(=O)c1ccccc1)[C@H](CO[C@@H]1O[C@H](COCC(=O)O)[C@H](OCC(=O)O)[C@H](OC(=O)c2ccccc2)[C@H]1O)NC(=O)CCCCCCCCCCCCCCC [Example 18, (2S,3R,4E)-3-Benzoyloxy-2-hexadecanoylamino-1-[3-O-benzoyl-4,6-di-O-carboxymethyl-β-D-galactopyranosyloxy]-4-octadecene]	73.6%	98%
